Measured values published in patent US12570988B2, “Aptamers that bind thiamine analogs and derivatives” (MeiraGTx Gene Regulation Limited, priority 2020, dated 2026).

Legend:
riboswitch 15D10 [1] = assay: Luciferase reporter with 15D10 riboswitch (Luci-15D10) in HEK 293 cells; assay type: cell-based, human; conditions: HEK 293 cells; for effect on luciferase expression from Luci-15D10: FIG. 9A, 9C; for fold induction at 50 µM: Homo sapiens, HEK293, 24 h, read-out: Fold increase in riboswitch 15D10-regulated luciferase expression, HEK; for fold induction at 50 µM / Fold increase in riboswitch 15D10-regulated luciferase expression, HEK: Table 2, 50 μM
Description: Transfection: 3.5×10^4 human embryonic kidney (HEK) 293 cells were plated in a 96-well flat bottom plate the day before transfection. Plasmid DNA (500 ng) was added to a tube or a 96-well U-bottom plate. […] Then, 50 μL of this diluted transfection reagent was added to the DNA, mixed, and incubated at RT for 20 min. Finally, 7 μL of this solution was added to a well of cells in the 96-well plate. Four hours after transfection, medium containing transfection solution was replaced by medium containing either TPP, fursultiamine, prosultiamine, bisbentiamine, beclotiamine hydrochloride, or sulbutiamine as aptamer inducers.
Firefly luciferase assay of cultured cells: Twenty-four hours after media change, plates were removed from the incubator, and equilibrated to RT for several minutes on a lab bench, then aspirated. Glo-lysis buffer (Promega, 100 μL, RT) was added, and the plates allowed to remain at RT for at least 5 minutes. Then, the well contents were mixed by 50 μL trituration, and 20 μL of each sample was mixed with 20 μL of bright-glo reagent (Promega) that had been diluted to 10% in glo-lysis buffer. 96 wells were spaced on an opaque white 384-well plate. Following a 5 min incubation at RT, luminescence was measured using a Tecan machine with 500 ms read time. The luciferase activity was expressed as mean arbitrary light units (ALU)±S.D., and fold induction was calculated as the quotient of the luciferase activity obtained from cells with TPP or analog treatment divided by the luciferase activity obtained from cells without TPP or analog treatment.

riboswitch 15D10 [2] = assay: Luciferase reporter with 15D10 riboswitch (Luci-15D10) in AML12 cells; assay type: cell-based, mouse; conditions: for relative potency in inducing luciferase expression: AML 12 cells, compared with fursultiamine or within groups; for fold induction at 50 µM: Mus musculus, AML12, 24 h, read-out: Fold increase in riboswitch 15D10-regulated luciferase expression, AML; for fold induction at 50 µM / Fold increase in riboswitch 15D10-regulated luciferase expression, AML: AML12 cells, Table 2, 50 μM

Structure (SMILES) | effect on luciferase expression from Luci-15D10 (riboswitch 15D10 [1]) | fold induction at 50 µM (riboswitch 15D10 [1]) | fold induction at 50 µM (riboswitch 15D10 [2]) | also measured
C/C(=C(\CCO)SCOC(=O)C(C)C)N(C=O)Cc1cnc(C)nc1N [Compound M16, (Z)-((2-(N-((4-Amino-2-methylpyrimidin-5-yl)methyl)formamido)-5-hydroxypent-2-en-3-yl)thio)methyl isobutyrate] | increased | – | – | relative potency in inducing luciferase expression (riboswitch 15D10 [2]): more potent than fursultiamine
C/C(=C(\CCO)SC(C)OC(=O)C(C)(C)C)N(C=O)Cc1cnc(C)nc1N (centres unmarked) [Compound M18, (Z)-1-((2-(N-((4-Amino-2-methylpyrimidin-5-yl)methyl)formamido)-5-hydroxypent-2-en-3-yl)thio)ethyl pivalate] | increased | – | – | –
C/C(=C(\CCO)SC(=O)c1ccccc1)N(C=O)Cc1cnc(C)nc1N [Compound M26, (Z)—S-(2-(N-((4-Amino-2-methylpyrimidin-5-yl)methyl)formamido)-5-hydroxypent-2-en-3-yl) benzothioate] | increased luciferase expression | – | – | –
C/C(=C(\CCO)SC(=O)C(C)C)N(C=O)Cc1cnc(C)nc1N [Compound M27, (Z)—S-(2-(N-((4-Amino-2-methylpyrimidin-5-yl)methyl)formamido)-5-hydroxypent-2-en-3-yl) 2-methylpropanethioate] | increased luciferase expression | – | – | –
C/C(=C(\CCO)SC(=O)C(C)(C)C)N(C=O)Cc1cnc(C)nc1N [Compound M28, (Z)—S-(2-(N-((4-Amino-2-methylpyrimidin-5-yl)methyl)formamido)-5-hydroxypent-2-en-3-yl) 2,2-dimethylpropanethioate] | increased luciferase expression | – | – | –
COc1ccc(C(=O)S/C(CCO)=C(/C)N(C=O)Cc2cnc(C)nc2N)cc1 [Compound M29, (Z)—S-(2-(N-((4-Amino-2-methylpyrimidin-5-yl)methyl)formamido)-5-hydroxypent-2-en-3-yl) 4-methoxybenzothioate] | increased luciferase expression | – | – | –
C/C(=C(\CCO)SC(=O)c1c(Cl)cccc1Cl)N(C=O)Cc1cnc(C)nc1N [Compound M30, (Z)—S-(2-(N-((4-Amino-2-methylpyrimidin-5-yl)methyl)formamido)-5-hydroxypent-2-en-3-yl) 2,6-dichlorobenzothioate] | no effect on luciferase expression | – | – | –
C/C(=C(\CCOP(=O)(O)O)SC(=O)C(C)(C)C)N(C=O)Cc1cnc(C)nc1N [Compound M31, (Z)—S-(2-(N-((4-Amino-2-methylpyrimidin-5-yl)methyl)formamido)-5-(phosphonooxy)pent-2-en-3-yl) 2,2-dimethylpropanethioate] | no effect on luciferase expression | – | – | –
C/C(=C(\CCOP(=O)(O)O)SC(=O)c1c(Cl)cccc1Cl)N(C=O)Cc1cnc(C)nc1N [Compound M33, (Z)—S-(2-(N-((4-Amino-2-methylpyrimidin-5-yl)methyl)formamido)-5-(phosphonooxy)pent-2-en-3-yl) 2,6-dichlorobenzothioate] | no effect on luciferase expression | – | – | –
C/C(=C(\CCO)SC(=O)c1cccc2ccccc12)N(C=O)Cc1cnc(C)nc1N [Compound M34, (Z)—S-(2-(N-((4-Amino-2-methylpyrimidin-5-yl)methyl)formamido)-5-hydroxypent-2-en-3-yl) naphthalene-1-carbothioate] | increased luciferase expression | 164 | 291 | relative potency in inducing luciferase expression (riboswitch 15D10 [1]; compared with fursultiamine or within Formula V/VI groups): most potent compound; relative potency in inducing luciferase expression (riboswitch 15D10 [2]): most potent inducer
C/C(=C(\CCO)SC(=O)c1ccc(C)c2ccccc12)N(C=O)Cc1cnc(C)nc1N [Compound M37, (Z)—S-(2-(N-((4-amino-2-methylpyrimidin-5-yl)methyl)formamido)-5-hydroxypent-2-en-3-yl) 4-methylnaphthalene-1-carbothioate] | – | 76.2 | 134 | –
CCOc1ccc2ccccc2c1C(=O)S/C(CCO)=C(/C)N(C=O)Cc1cnc(C)nc1N [Compound M38, (Z)—S-(2-(N-((4-amino-2-methylpyrimidin-5-yl)methyl)formamido)-5-hydroxypent-2-en-3-yl) 2-ethoxynaphthalene-1-carbothioate] | – | 1.2 | 1 | –
C/C(=C(\CCO)SC(=O)c1ccc(Br)c2ccccc12)N(C=O)Cc1cnc(C)nc1N [Compound M39, (Z)—S-(2-(N-((4-amino-2-methylpyrimidin-5-yl)methyl)formamido)-5-hydroxypent-2-en-3-yl) 4-bromonaphthalene-1-carbothioate] | – | 103 | 127 | –
C/C(=C(\CCO)SC(=O)c1cc2ccccc2c2ccccc12)N(C=O)Cc1cnc(C)nc1N [Compound M40, (Z)—S-(2-(N-((4-amino-2-methylpyrimidin-5-yl)methyl)formamido)-5-hydroxypent-2-en-3-yl) phenanthrene-9-carbothioate] | – | – | – | Fold increase in riboswitch 15D10-regulated luciferase expression, HEK (riboswitch 15D10 [1]): 83.1 fold; Fold increase in riboswitch 15D10-regulated luciferase expression, AML (riboswitch 15D10 [2]): 206.0 fold
C/C(=C(\CCO)SC(=O)c1cc2ccccc2c2ccccc12)N(C=O)Cc1cnc(C)nc1N [Compound M43, (Z)—S-(2-(N-((4-amino-2-methylpyrimidin-5-yl)methyl)formamido)-5-hydroxypent-2-en-3-yl) phenanthrene-9-carbothioate] | – | – | – | Fold increase in riboswitch 15D10-regulated luciferase expression, HEK (riboswitch 15D10 [1]): 10.2 fold; Fold increase in riboswitch 15D10-regulated luciferase expression, AML (riboswitch 15D10 [2]): 95.3 fold
C/C(=C(\CCO)SC(=O)c1ccc(F)c2ccccc12)N(C=O)Cc1cnc(C)nc1N [Compound M44, (Z)—S-(2-(N-((4-amino-2-methylpyrimidin-5-yl)methyl)formamido)-5-hydroxypent-2-en-3-yl) 4-fluoronaphthalene-1-carbothioate] | – | 177 | 314 | –
C/C(=C(\CCO)SC(=O)c1cccc2cccc(F)c12)N(C=O)Cc1cnc(C)nc1N [Compound M45, (Z)—S-(2-(N-((4-amino-2-methylpyrimidin-5-yl)methyl)formamido)-5-hydroxypent-2-en-3-yl) 8-fluoronaphthalene-1-carbothioate] | – | 1.3 | 2.9 | –
C/C(=C(\CCO)SC(=O)c1cccc2cccc(C)c12)N(C=O)Cc1cnc(C)nc1N [Compound M46, (Z)—S-(2-(N-((4-amino-2-methylpyrimidin-5-yl)methyl)formamido)-5-hydroxypent-2-en-3-yl) 8-methylnaphthalene-1-carbothioate] | – | 1.3 | 6 | –
COc1ccc(C(=O)S/C(CCO)=C(/C)N(C=O)Cc2cnc(C)nc2N)c2ccccc12 [Compound M47, (Z)—S-(2-(N-((4-amino-2-methylpyrimidin-5-yl)methyl)formamido)-5-hydroxypent-2-en-3-yl) 4-methoxynaphthalene-1-carbothioate] | – | 25.3 | 85.1 | –
C/C(=C(\CCO)SC(=O)c1ccc2ccccc2c1)N(C=O)Cc1cnc(C)nc1N [Compound M49, (Z)—S-(2-(N-((4-amino-2-methylpyrimidin-5-yl)methyl)formamido)-5-hydroxypent-2-en-3-yl) naphthalene-2-carbothioate] | – | 414 | 202 | –
